These results are taken from US10307413B2, “Tetrahydro- and dihydro-isoquinoline PRMT5 inhibitors and uses thereof” (Epizyme, Inc., priority 2013, dated 2019).

Test [1] deals with symmetric di-methyl arginine in Z-138 cells. As to the kind of experiment: Z-138 Methylation Assay (In Cell Western for symmetric di-methyl arginine and DNA content). Format: cell-based. Conditions: read-out: ICW EC50. An excerpt:
[formula] [formula] Where top and bottom are the normally allowed to float, but may be fixed at 100 or 0 respectively in a 3-parameter fit. The Hill Coefficient normally allowed to float but may also be fixed at 1 in a 3-parameter fit. Y is the % inhibition and X is the compound concentration.
RPMI/Glutamax medium, penicillin-streptomycin, heat inactivated fetal bovine serum, and D-PBS were purchased from Life Technologies, Grand Island, N.Y., USA. Odyssey blocking buffer, 800CW goat anti-rabbit IgG (H+L) antibody, and Licor Odyssey infrared scanner were purchased from Licor Biosciences, Lincoln, Nebr., USA. Symmetric di-methyl arginine antibody was purchased from EMD Millipore, Billerica, Mass., USA. 16% Paraformaldehyde was purchased from Electron Microscopy Sciences, Hatfield, Pa., USA.
Cell Treatment, in Cell Western (ICW) for Detection of Symmetric Di-Methyl Arginine and DNA Content.
Z-138 cells were seeded in assay medium at a concentration of 50,000 cells per mL to a 384-well cell culture plate with 50 μL per well. Compound (100 nL) from 384 well source plates was added directly to 384 well cell plate. Plates were incubated at 37° C., 5% CO2 for 96 hours. […] Plates were incubated at room temperature for 30 minutes then incubated at 37° C., 5% CO2 for 5 hours. After the incubation, 40 μL per well of 8% paraformaldehyde in PBS (16% paraformaldahyde was diluted to 8% in PBS) was added to each plate and incubated for 30 minutes. […] Next 30 μL per well of Odyssey blocking buffer were added to each plate and incubated 1 hour at room temperature. Blocking buffer was removed and 20 μL per well of primary antibody was added (symmetric di-methyl arginine diluted 1:100 in Odyssey buffer with 0.1% Tween 20 (v/v)) and plates were incubated overnight (16 hours) at 4° C. Plates were washed 5 times with 100 μL per well of wash buffer. Next 20 μL per well of secondary antibody was added (1:200 800CW goat anti-rabbit IgG (H+L) antibody, 1:1000 DRAQ5 (Biostatus limited) in Odyssey buffer with 0.1% Tween 20 (v/v)) and incubated for 1 hour at room temperature. The plates were washed 5 times with 100 μL per well wash buffer then 1 time with 100 μL per well of water. Plates were allowed to dry at room temperature then imaged on the Licor Odyssey machine which measures integrated intensity at 700 nm and 800 nm wavelengths. Both 700 and 800 channels were scanned.
First, the ratio for each well was determined by:
Each plate included fourteen control wells of DMSO only treatment (minimum inhibition) as well as fourteen control wells for maximum inhibition treated with 3 μM of a reference compound (Background wells). The average of the ratio values for each control type was calculated and used to determine the percent inhibition for each test well in the plate. Reference compound was serially diluted three-fold in DMSO for a total of nine test concentrations, beginning at 3 μM. Percent inhibition was determined and IC50 curves were generated using triplicate wells per concentration of compound. Percent Inhibition=100−

The test system of another test is Z-138 cell line. As to the kind of experiment: Z-138 Proliferation Assay (Cell Titer Glo, 5 days). Format: cell-based. Conditions: Homo sapiens, 120 h; Z-138 cells, 5 days; read-out: Proliferation EC50. An excerpt:
RPMI/Glutamax medium, penicillin-streptomycin, heat inactivated fetal bovine serum were purchased from Life Technologies, Grand Island, N.Y., USA. V-bottom polypropylene 384-well plates were purchased from Greiner Bio-One, Monroe, N.C., USA. Cell culture 384-well white opaque plates were purchased from Perkin Elmer, Waltham, Mass., USA. Cell-Titer Glo® was purchased from Promega Corporation, Madison, Wis., USA. SpectraMax M5 plate reader was purchased from Molecular Devices LLC, Sunnyvale, Calif., USA.
A compound source plate was prepared by performing triplicate nine-point 3-fold serial dilutions in DMSO, beginning at 10 mM (final top concentration of compound in the assay was 20 μM and the DMSO was 0.2%). A 100 nL aliquot from the compound stock plate was added to its respective well in the cell plate. […] After addition of compounds, assay plates were incubated for 5 days at 37° C., 5% CO2, relative humidity >90%.
Cell viability was measured by quantitation of ATP present in the cell cultures, adding […] of Cell Titer Glo® reagent to the cell plates. Luminescence was read in the SpectraMax M5 microplate reader. The concentration of compound inhibiting cell viability by 50% was determined using a 4-parametric fit of the normalized dose response curves.

Each structure is given as a SMILES string. Where two headings read alike, the source gives them in different places.

Turning to `O=C(NCC(O)CN1CCc2ccccc2C1)c1cccc(-c2ccccn2)c1` (stereo not drawn) [Compound 1, N-(3-(3,4-dihydroisoquinolin-2(1H)-yl)-2-hydroxypropyl)-3-(pyridin-2-yl)benzamide], the EC50 in test [1] (Homo sapiens) was less than 100 nM; with Z-138 cell line, 1000 to 10000 nM.

For the compound `Cn1nccc1-c1cccc(C(=O)NCC(O)CN2CCc3ccccc3C2)c1` (stereo not drawn) [Compound 2, N-(3-(3,4-dihydroisoquinolin-2(1H)-yl)-2-hydroxypropyl)-3-(1-methyl-1H-pyrazol-5-yl)benzamide], the EC50 was less than 100 nM in test [1] (Homo sapiens) and 1000 to 10000 nM in the test with Z-138 cell line.

In the case of `O=C(NC[C@H](O)CN1CCc2ccccc2C1)c1ccccc1` [Compound 3, (S)—N-(3-(3,4-dihydroisoquinolin-2(1H)-yl)-2-hydroxypropyl)benzamide], the values for the EC50 (in test [1] (Homo sapiens); in the test on Z-138 cell line) were less than 100 nM and 1000 to 10000 nM, respectively.

On to `O=C(NC[C@H](O)CN1CCc2ccccc2C1)Nc1ccccc1` [Compound 5], for which the EC50 in test [1] (Homo sapiens) is 101 to 1000 nM; in the test on Z-138 cell line, greater than 20000 nM.

Turning to `O=C(NCC(O)CN1CCc2ccccc2C1)c1cccc(-c2cccnc2)c1` (stereo not drawn) [Compound 8, N-(3-(3,4-dihydroisoquinolin-2(1H)-yl)-2-hydroxypropyl)-3-(pyridin-3-yl)benzamide], the EC50 in test [1] (Homo sapiens) is less than 100 nM; with Z-138 cell line, 1000 to 10000 nM.

Turning to `O=C(NCC(O)CN1CCc2ccccc2C1)c1cccc(-c2ccncc2)c1` (stereo not drawn) [Compound 9, N-(3-(3,4-dihydroisoquinolin-2(1H)-yl)-2-hydroxypropyl)-3-(pyridin-4-yl)benzamide], the EC50 in test [1] (Homo sapiens) was less than 100 nM; in the test on Z-138 cell line, 1000 to 10000 nM.

For `O=C(NCC(O)CN1CCc2ccccc2C1)c1cccc(-c2cc[nH]n2)c1` (stereo not drawn) [Compound 10], the EC50 in test [1] (Homo sapiens) is 101 to 1000 nM; in the test with Z-138 cell line, 1000 to 10000 nM.

As for `O=C(NC[C@@H](O)CN1CCc2ccccc2C1)Oc1ccccc1` [Compound 11, (R)-phenyl (3-(3,4-dihydroisoquinolin-2(1H)-yl)-2-hydroxypropyl)carbamate], in test [1] (Homo sapiens), the EC50 was 1000 to 10000 nM.

Take `O=C(NCC(O)CN1CCc2ccccc2C1)c1ccc(-c2ccccn2)cc1` (stereo not drawn) [Compound 13, N-(3-(3,4-dihydroisoquinolin-2(1H)-yl)-2-hydroxypropyl)-4-(pyridin-2-yl)benzamide]: the EC50 in test [1] (Homo sapiens) was less than 100 nM; in the test with Z-138 cell line, 101 to 1000 nM.

`O=C(NCC(O)CN1CCc2ccccc2C1)c1cccc(N2CCOCC2)c1` (stereo not drawn) [Compound 14, N-(3-(3,4-dihydroisoquinolin-2(1H)-yl)-2-hydroxypropyl)-3-morpholinobenzamide]: the EC50 in test [1] (Homo sapiens) was in the range of 101 to 1000 nM; with Z-138 cell line, 1000 to 10000 nM.

In the case of `O=C(NCC(O)CN1CCc2ccccc2C1)c1cccc(CNC2CCOCC2)c1` (stereo not drawn) [Compound 15, N-(3-(3,4-dihydroisoquinolin-2(1H)-yl)-2-hydroxypropyl)-3-(((tetrahydro-2H-pyran-4-yl)amino)methyl)benzamide], the values for the EC50 (in test [1] (Homo sapiens); in the test with Z-138 cell line) were 101 to 1000 nM and 10000 to 50000 nM, respectively.

As for `O=C(NCC(O)CN1CCc2ccccc2C1)c1cccc(NC2CCOCC2)c1` (stereo not drawn) [Compound 16, N-(3-(3,4-dihydroisoquinolin-2(1H)-yl)-2-hydroxypropyl)-3-((tetrahydro-2H-pyran-4-yl)amino)benzamide], the figures for the EC50 (in test [1] (Homo sapiens); in the test with Z-138 cell line) were less than 100 nM and 101 to 1000 nM, respectively.

`O=C(NC[C@@H](O)CN1CCc2ccccc2C1)c1cccc(-c2ccccn2)c1` [Compound 19]: the results for the EC50 (in test [1] (Homo sapiens); with Z-138 cell line) were 101 to 1000 nM and 10000 to 50000 nM, respectively.

For `O=C(NC[C@H](O)CN1CCc2ccccc2C1)c1cccc(-c2ccccn2)c1` [Compound 20], the EC50 in test [1] (Homo sapiens) was less than 100 nM; in the test with Z-138 cell line, 101 to 1000 nM.

In the case of `CS(=O)(=O)Nc1cccc(C(=O)NCC(O)CN2CCc3ccccc3C2)c1` (stereo not drawn) [Compound 24], the results for the EC50 (in test [1] (Homo sapiens); with Z-138 cell line) were 101 to 1000 nM and 1000 to 10000 nM, respectively.

Turning to `CN(C)CCOc1cccc(C(=O)NCC(O)CN2CCc3ccccc3C2)c1` (stereo not drawn) [Compound 28, N-(3-(3,4-dihydroisoquinolin-2(1H)-yl)-2-hydroxypropyl)-3-(2-(dimethylamino)ethoxy)benzamide], the EC50 in test [1] (Homo sapiens) fell in the range of 101 to 1000 nM; in the test with Z-138 cell line it was 10000 to 50000 nM.

For the compound `O=C(NCC(O)CN1CCc2ccccc2C1)c1cccc(CN2CCNCC2)c1` (stereo not drawn) [Compound 29], the results for the EC50 (in test [1] (Homo sapiens); in the test with Z-138 cell line) were 101 to 1000 nM and 1000 to 10000 nM, respectively.

As for `CN1CCN(Cc2cccc(C(=O)NCC(O)CN3CCc4ccccc4C3)c2)CC1` (stereo not drawn) [Compound 30, N-(3-(3,4-dihydroisoquinolin-2(1H)-yl)-2-hydroxypropyl)-3-((4-methylpiperazin-1-yl)methyl)benzamide], the EC50 in test [1] (Homo sapiens) fell in the range of 101 to 1000 nM; with Z-138 cell line, 1000 to 10000 nM.

In the case of `CN1CCCC1c1cccc(C(=O)NCC(O)CN2CCc3ccccc3C2)c1` (stereo not drawn) [Compound 34, N-(3-(3,4-dihydroisoquinolin-2(1H)-yl)-2-hydroxypropyl)-3-(1-methylpyrrolidin-2-yl) benzamide], the EC50 in test [1] (Homo sapiens) was in the range of 101 to 1000 nM; in the test on Z-138 cell line it was 10000 to 50000 nM.

With `O=C(NCC(O)CN1CCc2ccccc2C1)c1cccc(N2CCNCC2)c1` (stereo not drawn) [Compound 35, N-(3-(3,4-dihydroisoquinolin-2(1H)-yl)-2-hydroxypropyl)-3-(piperazin-1-yl)benzamide], the figures for the EC50 (in test [1] (Homo sapiens); in the test on Z-138 cell line) were 101 to 1000 nM and 10000 to 50000 nM, respectively.

Turning to `CN1CCN(c2cccc(C(=O)NCC(O)CN3CCc4ccccc4C3)c2)CC1` (stereo not drawn) [Compound 36], the EC50 lay within 101 to 1000 nM in test [1] (Homo sapiens) and 10000 to 50000 nM in the test with Z-138 cell line.

Regarding `O=C(NCC(O)CN1CCc2ccccc2C1)c1cccc(C2CCNC2)c1` (stereo not drawn) [Compound 37], the EC50 in test [1] (Homo sapiens) was 101 to 1000 nM; in the test on Z-138 cell line, greater than 20000 nM.

In the case of `O=C(NC[C@H](O)CN1CCc2ccccc2C1)c1cccc(NC2CCOCC2)c1` [Compound 44, (S)—N-(3-(3,4-dihydroisoquinolin-2(1H)-yl)-2-hydroxypropyl)-3-((tetrahydro-2H-pyran-4-yl)amino)benzamide], in the test on Z-138 cell line, the EC50 was 101 to 1000 nM.

For the compound `O=C(NCC(O)CN1CCc2ccccc2C1)c1cccc(NC2CCOC2)c1` (stereo not drawn) [Compound 45, N-(3-(3,4-dihydroisoquinolin-2(1H)-yl)-2-hydroxypropyl)-3-((tetrahydrofuran-3-yl)amino)benzamide], in test [1] (Homo sapiens), the EC50 lay within 101 to 1000 nM.

Consider `O=C(NCC(O)CN1CCc2ccccc2C1)c1cccc(NCCN2CCOCC2)c1` (stereo not drawn) [Compound 61], for which the EC50 in test [1] (Homo sapiens) fell in the range of 101 to 1000 nM.

In the case of `COCCNc1cccc(C(=O)NCC(O)CN2CCc3ccccc3C2)c1` (stereo not drawn) [Compound 72], in test [1] (Homo sapiens), the EC50 fell in the range of 1000 to 10000 nM.

Take `O=C(NCC(O)CN1CCc2ccccc2C1)c1cncc(NC2CCOCC2)n1` (stereo not drawn) [Compound 75]: the EC50 in test [1] (Homo sapiens) lay within 101 to 1000 nM.

Regarding `O=C(NCC(O)CN1CCc2ccccc2C1)c1nccc(NC2CCOCC2)n1` (stereo not drawn) [Compound 76], in test [1] (Homo sapiens), the EC50 fell in the range of 101 to 1000 nM.

With `O=C(NC[C@@H](O)CN1CCc2ccccc2C1)c1cccc(OC2CCOCC2)c1` [Compound 83], in test [1] (Homo sapiens), the EC50 lay within 101 to 1000 nM.

On to `CC1=NN(c2ccc(C(=O)NCC(O)CN3CCc4ccccc4C3)cc2)C(=O)C1` (stereo not drawn) [Compound 86], for which, in test [1] (Homo sapiens), the EC50 lay in the range of 1000 to 10000 nM.

Turning to `CN1CCC(Oc2cccc(C(=O)NCC(O)CN3CCc4ccccc4C3)c2)C1` (stereo not drawn) [Compound 134], the EC50 in the test on Z-138 cell line lay in the range of 10000 to 50000 nM.

Take `O=C(O)CCCN1CCN(Cc2cccc(C(=O)NCC(O)CN3CCc4ccccc4C3)c2)CC1` (stereo not drawn) [Compound 158]: the EC50 with Z-138 cell line was greater than 20000 nM.

As to `O=C(NC[C@@H](O)CN1CCc2ccccc2C1)c1cc(NC2COC2)ncn1` [Compound 367], the EC50 in test [1] lay within 101 to 1000 nM.
